Data taken from ChEMBL document CHEMBL1201862, “PubChem BioAssay data set” (2004).
Blank lines part the entries; values can stand above or below the molecule they belong to. Activity calls are given as the source filed them.

Columns and labels:
[1] = target: T1, Tyrosine-protein phosphatase non-receptor type 22 (Homo sapiens, UniProt Q9Y2R2); experiment: LYP (PTPN22) phosphatase inhibitor potency, SAR follow-up, biochemical, pCAP fluorogenic substrate, fluorescence, set 3 (AID 449727); format: functional
T1 sequence (Q9Y2R2 whole entry): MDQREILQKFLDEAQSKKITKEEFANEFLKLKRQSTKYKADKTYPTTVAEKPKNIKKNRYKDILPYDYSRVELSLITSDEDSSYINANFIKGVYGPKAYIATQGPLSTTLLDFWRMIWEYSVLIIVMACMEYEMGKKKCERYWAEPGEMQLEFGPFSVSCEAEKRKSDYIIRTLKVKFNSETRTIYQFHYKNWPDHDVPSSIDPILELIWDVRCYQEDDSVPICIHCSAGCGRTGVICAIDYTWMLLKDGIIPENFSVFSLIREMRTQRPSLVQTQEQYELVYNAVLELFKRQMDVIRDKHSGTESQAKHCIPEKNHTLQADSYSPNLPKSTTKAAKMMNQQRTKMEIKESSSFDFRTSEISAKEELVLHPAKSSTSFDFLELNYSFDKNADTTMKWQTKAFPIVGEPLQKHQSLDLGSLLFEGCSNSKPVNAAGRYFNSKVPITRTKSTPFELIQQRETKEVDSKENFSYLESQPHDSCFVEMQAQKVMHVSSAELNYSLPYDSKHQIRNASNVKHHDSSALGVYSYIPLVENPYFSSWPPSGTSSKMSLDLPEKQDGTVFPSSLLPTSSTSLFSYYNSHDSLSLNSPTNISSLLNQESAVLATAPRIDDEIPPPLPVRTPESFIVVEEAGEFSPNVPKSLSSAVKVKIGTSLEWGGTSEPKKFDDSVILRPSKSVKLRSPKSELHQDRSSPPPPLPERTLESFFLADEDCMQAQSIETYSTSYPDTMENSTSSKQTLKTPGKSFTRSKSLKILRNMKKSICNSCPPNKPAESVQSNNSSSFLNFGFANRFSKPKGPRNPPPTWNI

[2] = target: T1, Tyrosine-protein phosphatase non-receptor type 22; experiment: SAR LYP1 Fluorescent Assay using OMFP substrate for In Vitro dose response studies - Set 3. [Related pubchem assays (depositor defined):AID1779, AID1784, AID2140, AID2686]; format: functional
[3] = target: Tyrosine-protein phosphatase non-receptor type 12 (Homo sapiens, UniProt Q05209); experiment: SAR Selectivity Analysis of small molecule inhibitors of PEST using pCAP in a fluorescence assay. [Related pubchem assays (depositor defined):AID1779, AID1784, AID2135]; format: functional
Tyrosine-protein phosphatase non-receptor type 12, sequence (Q05209 whole entry): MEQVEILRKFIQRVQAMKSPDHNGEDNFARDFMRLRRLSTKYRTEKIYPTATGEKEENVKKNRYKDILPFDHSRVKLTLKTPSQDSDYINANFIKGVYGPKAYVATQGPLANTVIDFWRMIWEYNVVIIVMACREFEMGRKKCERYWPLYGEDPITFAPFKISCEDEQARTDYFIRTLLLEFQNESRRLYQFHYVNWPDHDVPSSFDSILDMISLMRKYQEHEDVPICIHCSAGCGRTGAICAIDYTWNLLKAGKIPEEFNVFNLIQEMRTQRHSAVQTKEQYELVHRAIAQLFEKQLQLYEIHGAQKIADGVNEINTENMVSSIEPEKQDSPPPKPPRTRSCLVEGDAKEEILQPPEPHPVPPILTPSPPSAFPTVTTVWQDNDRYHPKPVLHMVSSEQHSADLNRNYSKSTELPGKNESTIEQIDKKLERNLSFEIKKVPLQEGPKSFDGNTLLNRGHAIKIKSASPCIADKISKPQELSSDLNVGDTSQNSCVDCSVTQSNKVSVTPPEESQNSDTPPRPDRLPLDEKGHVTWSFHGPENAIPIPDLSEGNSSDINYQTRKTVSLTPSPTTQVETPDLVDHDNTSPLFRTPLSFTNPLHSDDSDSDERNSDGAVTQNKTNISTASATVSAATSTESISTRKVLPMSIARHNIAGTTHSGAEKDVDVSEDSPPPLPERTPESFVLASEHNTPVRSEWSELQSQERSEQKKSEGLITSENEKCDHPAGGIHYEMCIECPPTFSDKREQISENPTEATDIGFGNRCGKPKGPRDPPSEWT

[4] = target: T2, Tyrosine-protein phosphatase non-receptor type 7 (Homo sapiens, UniProt P35236); experiment: HePTP (PTPN7) phosphatase inhibitor potency, SAR follow-up, biochemical, set 2 (AID 449736); format: functional
T2 sequence (P35236 whole entry): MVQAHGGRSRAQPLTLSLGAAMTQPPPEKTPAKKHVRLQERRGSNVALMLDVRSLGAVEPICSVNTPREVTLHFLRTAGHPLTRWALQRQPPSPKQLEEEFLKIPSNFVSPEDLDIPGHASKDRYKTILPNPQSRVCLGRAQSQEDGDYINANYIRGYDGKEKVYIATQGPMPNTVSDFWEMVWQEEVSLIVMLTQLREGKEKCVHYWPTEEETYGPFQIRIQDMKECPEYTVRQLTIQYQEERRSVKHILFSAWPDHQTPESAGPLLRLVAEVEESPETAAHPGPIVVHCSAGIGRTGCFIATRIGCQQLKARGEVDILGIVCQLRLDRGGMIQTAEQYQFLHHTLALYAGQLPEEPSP

[5] = target: T1, Tyrosine-protein phosphatase non-receptor type 22; experiment: SAR LYP1 Fluorescent Assay using OMFP substrate for In Vitro dose response studies - Set 2. [Related pubchem assays (depositor defined):AID1779, AID1784, AID2140, AID449726, AID488869]; format: functional
[6] = target: T1, Tyrosine-protein phosphatase non-receptor type 22; experiment: SAR LYP1 Fluorescent Assay using pCAP substrate for In Vitro dose response studies - Set 2. [Related pubchem assays (depositor defined):AID1779, AID1784, AID2135, AID449727]; format: functional
Leucine aminopeptidase = target: T3, Leucine aminopeptidase (Plasmodium falciparum 3D7, UniProt Q8IL11); experiment: P. falciparum M17LAP inhibitors, primary screen, biochemical, fluorogenic H-Leu-NHMec substrate, 1536-well (AID 1619); format: functional
T3 sequence (Q8IL11 whole entry): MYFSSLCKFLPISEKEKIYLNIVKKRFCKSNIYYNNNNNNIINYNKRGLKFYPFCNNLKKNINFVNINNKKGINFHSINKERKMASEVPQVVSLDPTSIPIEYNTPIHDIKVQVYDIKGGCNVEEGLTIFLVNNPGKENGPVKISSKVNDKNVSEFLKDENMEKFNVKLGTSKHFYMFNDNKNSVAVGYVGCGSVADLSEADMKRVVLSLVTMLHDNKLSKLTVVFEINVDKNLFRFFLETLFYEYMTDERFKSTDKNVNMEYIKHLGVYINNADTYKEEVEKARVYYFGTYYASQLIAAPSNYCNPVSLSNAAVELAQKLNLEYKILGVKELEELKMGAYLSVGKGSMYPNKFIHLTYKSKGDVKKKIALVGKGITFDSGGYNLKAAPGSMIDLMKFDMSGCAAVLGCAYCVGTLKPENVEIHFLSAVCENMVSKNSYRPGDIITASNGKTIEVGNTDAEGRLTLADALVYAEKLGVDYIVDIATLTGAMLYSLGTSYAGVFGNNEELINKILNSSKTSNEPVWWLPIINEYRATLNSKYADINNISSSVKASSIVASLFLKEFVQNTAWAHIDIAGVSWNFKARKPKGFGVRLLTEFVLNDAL

[7] = target: Peroxisome proliferator-activated receptor gamma/Nuclear receptor coactivator 1 (Homo sapiens, UniProt P37231); experiment: (§1) TR-FRET dose response biochemical High Throughput Screening assay for agonists of the steroid receptor coactivator 1 (SRC-1) recruitment by the peroxisome proliferator-activated receptor gamma (PPAR gamma): non-selective agonists. [Related pubchem assays (depositor defined):AID1300, AID1808, AID504735, AID631]; format: protein assay
Peroxisome proliferator-activated receptor gamma/Nuclear receptor coactivator 1, sequence (P37231 whole entry): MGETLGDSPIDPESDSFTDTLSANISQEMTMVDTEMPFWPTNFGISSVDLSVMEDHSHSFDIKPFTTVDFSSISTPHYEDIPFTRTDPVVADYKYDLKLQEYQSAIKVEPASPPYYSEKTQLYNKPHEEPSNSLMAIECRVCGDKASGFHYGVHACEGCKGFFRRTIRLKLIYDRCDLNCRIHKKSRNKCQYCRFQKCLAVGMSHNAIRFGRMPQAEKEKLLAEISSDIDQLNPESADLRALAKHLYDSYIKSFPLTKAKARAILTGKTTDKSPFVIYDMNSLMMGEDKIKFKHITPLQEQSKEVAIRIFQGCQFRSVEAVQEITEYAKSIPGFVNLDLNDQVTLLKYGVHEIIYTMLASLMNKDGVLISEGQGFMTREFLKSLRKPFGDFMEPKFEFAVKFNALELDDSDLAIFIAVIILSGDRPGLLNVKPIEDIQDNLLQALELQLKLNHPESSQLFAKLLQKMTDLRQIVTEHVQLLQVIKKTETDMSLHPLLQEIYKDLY
Peroxisome proliferator-activated receptor gamma/Nuclear receptor coactivator 1, sequence (Q15788 whole entry, further chain): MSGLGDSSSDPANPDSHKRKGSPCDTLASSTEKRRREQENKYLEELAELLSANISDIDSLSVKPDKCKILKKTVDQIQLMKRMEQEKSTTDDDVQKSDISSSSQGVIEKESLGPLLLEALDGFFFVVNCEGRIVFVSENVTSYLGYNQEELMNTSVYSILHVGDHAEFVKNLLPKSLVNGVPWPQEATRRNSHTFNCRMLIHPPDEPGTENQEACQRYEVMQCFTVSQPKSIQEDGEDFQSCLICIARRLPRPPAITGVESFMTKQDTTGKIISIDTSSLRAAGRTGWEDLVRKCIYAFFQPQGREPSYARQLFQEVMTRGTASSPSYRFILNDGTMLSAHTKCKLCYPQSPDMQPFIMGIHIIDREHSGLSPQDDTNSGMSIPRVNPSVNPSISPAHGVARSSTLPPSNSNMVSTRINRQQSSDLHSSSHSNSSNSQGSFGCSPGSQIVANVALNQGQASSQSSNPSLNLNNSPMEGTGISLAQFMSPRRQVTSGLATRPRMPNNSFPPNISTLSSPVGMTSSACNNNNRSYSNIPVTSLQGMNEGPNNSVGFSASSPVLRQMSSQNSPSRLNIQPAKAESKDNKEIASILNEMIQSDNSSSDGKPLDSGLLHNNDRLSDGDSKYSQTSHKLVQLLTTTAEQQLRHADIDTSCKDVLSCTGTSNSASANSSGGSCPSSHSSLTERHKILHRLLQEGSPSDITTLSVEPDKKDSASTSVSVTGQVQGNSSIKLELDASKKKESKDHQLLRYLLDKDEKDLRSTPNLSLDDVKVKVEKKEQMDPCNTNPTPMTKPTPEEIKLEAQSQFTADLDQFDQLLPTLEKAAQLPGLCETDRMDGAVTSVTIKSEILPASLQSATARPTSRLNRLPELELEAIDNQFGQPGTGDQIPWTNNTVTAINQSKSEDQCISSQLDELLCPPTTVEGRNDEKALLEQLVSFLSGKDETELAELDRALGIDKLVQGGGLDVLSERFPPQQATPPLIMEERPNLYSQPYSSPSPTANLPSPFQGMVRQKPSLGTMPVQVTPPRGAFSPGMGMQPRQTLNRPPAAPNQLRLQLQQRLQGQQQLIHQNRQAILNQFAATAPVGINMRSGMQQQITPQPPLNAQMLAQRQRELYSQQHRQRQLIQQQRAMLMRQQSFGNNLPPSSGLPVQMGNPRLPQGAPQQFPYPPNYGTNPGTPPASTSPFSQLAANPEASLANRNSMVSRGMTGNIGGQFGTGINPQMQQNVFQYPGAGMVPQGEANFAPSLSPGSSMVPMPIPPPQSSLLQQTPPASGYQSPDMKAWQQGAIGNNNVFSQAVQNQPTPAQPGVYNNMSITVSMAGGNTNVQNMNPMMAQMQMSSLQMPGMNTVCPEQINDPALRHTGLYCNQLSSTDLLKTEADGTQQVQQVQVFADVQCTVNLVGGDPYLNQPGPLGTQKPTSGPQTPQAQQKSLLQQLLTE

[8] = target: Peroxisome proliferator-activated receptor gamma/Nuclear receptor coactivator 3 (Homo sapiens, UniProt P37231); experiment: as §1, with “3 (SRC-3)” for “1 (SRC-1)”, “assays: 1301 (Confirmation screen.), 1048 (Primary screen.)]” for “assays (depositor defined):AID1300, AID1808, AID504735, AID631]”; format: functional
[9] = target: Peroxisome proliferator-activated receptor gamma/Nuclear receptor coactivator 2 (Homo sapiens, UniProt P37231); experiment: TR-FRET dose response biochemical High Throughput Screening assay for agonists of the steroid receptor coactivator 2 (SRC-2) recruitment by the peroxisome proliferator-activated receptor gamma (PPAR gamma): non-selective agonists. [Related pubchem assays: 1297, 1032 ]; format: functional
[10] = target: T4, RNA-binding protein pos-1 (Caenorhabditis elegans, UniProt G5EF15); experiment: inhibitors of POS-1/mex-3 RNA binding, dose response, biochemical, fluorescence polarization (AID 1964);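 note: purified POS-1 fused to maltose binding protein made in E. coli; potency of compounds blocking POS-1 binding to fluorescent RNA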
T4 sequence (G5EF15 whole entry): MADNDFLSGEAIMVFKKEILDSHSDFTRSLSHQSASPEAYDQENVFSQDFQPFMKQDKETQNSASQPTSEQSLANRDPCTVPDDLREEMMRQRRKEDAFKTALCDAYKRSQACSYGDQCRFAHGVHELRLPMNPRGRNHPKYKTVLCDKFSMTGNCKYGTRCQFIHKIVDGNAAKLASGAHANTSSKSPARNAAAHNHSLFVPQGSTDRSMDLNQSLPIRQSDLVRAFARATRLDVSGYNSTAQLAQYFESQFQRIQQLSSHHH

Large T antigen = Large T antigen (Simian virus 40, UniProt P03070); format: functional, Betapolyomavirus macacae;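 note: Confirmatory-stage PubChem screen for compounds that inhibit SV40 T antigen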
[11] = target: T5, Zinc finger protein mex-5 (Caenorhabditis elegans, UniProt Q9XUB2); experiment: MEX-5/TCR-2 RNA interaction inhibitors, dose response, biochemical, C. elegans, fluorescence polarization (AID 1960)
T5 sequence (Q9XUB2 whole entry): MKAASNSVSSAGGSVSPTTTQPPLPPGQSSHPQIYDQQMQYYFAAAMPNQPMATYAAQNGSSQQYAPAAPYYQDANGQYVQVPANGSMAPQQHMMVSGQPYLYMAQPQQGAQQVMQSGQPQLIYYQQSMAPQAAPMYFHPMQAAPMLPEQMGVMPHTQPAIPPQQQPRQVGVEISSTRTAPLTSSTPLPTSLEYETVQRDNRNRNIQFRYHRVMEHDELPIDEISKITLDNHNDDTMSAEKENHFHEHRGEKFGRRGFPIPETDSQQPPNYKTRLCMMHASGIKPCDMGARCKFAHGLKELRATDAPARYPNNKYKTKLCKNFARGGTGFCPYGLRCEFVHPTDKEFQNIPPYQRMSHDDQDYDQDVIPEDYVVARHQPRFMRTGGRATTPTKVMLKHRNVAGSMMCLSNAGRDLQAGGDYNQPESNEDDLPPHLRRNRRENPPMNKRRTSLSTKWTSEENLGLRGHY

[12] = target: Ras and Rab interactor 1/Tyrosine-protein kinase ABL1 (Homo sapiens, UniProt P00519+Q13671); format: functional;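 note: biochemical TR-FRET dose-response test measuring inhibition of binding between Rin1 and Abl proteins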
[13] = target: T6, Alkaline phosphatase, tissue-nonspecific isozyme (Homo sapiens, UniProt P05186); experiment: TNAP enzyme inhibition by screening hits, dose response, selectivity assay for mouse IAP inhibitor project, biochemical, human TNAP, uHTS hits (AID 488906); format: functional
T6 sequence (P05186 whole entry): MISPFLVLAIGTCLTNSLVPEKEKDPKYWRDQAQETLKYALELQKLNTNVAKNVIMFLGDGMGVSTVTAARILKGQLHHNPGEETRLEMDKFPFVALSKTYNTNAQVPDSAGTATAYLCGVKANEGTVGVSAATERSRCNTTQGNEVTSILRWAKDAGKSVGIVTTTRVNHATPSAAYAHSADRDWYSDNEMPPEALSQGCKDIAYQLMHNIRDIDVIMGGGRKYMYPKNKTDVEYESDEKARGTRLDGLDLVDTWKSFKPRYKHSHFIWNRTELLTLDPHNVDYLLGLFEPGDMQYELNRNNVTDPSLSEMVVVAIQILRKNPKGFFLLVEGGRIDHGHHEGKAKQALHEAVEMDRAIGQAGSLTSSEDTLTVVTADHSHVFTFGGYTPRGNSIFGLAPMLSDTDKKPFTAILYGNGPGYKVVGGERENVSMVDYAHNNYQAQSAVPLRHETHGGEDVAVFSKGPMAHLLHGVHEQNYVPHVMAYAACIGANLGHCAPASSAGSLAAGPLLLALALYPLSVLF

[14] = target: Intestinal-type alkaline phosphatase (Mus musculus, UniProt P24822); experiment: PubChem AID 488785; format: functional
Intestinal-type alkaline phosphatase (Mus musculus, UniProt P24822), sequence (P24822 whole entry): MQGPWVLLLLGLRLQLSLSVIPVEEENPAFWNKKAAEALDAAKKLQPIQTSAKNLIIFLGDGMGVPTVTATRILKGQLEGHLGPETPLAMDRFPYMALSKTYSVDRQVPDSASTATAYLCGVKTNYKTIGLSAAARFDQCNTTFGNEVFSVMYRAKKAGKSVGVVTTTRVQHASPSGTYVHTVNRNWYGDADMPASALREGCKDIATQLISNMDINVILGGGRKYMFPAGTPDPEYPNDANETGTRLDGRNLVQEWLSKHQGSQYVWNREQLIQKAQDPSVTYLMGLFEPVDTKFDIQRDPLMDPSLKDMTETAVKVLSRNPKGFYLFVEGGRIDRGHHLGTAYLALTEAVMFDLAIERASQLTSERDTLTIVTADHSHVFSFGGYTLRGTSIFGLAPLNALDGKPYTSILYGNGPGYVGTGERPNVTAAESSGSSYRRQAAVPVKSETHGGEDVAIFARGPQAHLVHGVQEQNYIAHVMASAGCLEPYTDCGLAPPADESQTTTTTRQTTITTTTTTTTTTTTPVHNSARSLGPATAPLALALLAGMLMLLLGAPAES

[15] = target: T7, High affinity choline transporter 1 (Homo sapiens, UniProt Q9GZV3); experiment: CHT inhibitors, dose response, cell-based, 5-point CRC, membrane potential dye (AID 504840); format: functional
T7 sequence (Q9GZV3 whole entry): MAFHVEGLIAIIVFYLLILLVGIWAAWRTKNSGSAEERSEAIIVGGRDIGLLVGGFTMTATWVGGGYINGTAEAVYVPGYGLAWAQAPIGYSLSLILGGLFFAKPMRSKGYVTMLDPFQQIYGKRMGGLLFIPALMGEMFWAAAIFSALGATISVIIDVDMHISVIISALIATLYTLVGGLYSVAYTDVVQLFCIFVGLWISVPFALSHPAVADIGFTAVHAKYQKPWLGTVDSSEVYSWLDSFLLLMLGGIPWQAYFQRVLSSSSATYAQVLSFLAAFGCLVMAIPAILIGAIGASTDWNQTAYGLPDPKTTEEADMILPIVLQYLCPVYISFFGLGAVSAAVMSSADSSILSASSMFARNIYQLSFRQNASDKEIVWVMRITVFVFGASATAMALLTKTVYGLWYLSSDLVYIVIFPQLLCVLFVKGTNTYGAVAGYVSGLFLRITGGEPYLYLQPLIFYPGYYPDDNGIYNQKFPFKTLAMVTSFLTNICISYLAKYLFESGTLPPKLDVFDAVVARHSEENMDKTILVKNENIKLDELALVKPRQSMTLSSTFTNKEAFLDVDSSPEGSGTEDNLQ

Albumin = Albumin (Bos taurus, UniProt P02769); experiment: Counterscreen for inhibitors of T-cell receptor (TCR)-CD3 interaction: Fluorescence-based biochemical high throughput dose response assay to identify inhibitors of T-cell receptor (TCR)-CD3 interaction using a TAMRA-labeled BSA probe.; format: functional
Albumin, sequence (P02769 whole entry): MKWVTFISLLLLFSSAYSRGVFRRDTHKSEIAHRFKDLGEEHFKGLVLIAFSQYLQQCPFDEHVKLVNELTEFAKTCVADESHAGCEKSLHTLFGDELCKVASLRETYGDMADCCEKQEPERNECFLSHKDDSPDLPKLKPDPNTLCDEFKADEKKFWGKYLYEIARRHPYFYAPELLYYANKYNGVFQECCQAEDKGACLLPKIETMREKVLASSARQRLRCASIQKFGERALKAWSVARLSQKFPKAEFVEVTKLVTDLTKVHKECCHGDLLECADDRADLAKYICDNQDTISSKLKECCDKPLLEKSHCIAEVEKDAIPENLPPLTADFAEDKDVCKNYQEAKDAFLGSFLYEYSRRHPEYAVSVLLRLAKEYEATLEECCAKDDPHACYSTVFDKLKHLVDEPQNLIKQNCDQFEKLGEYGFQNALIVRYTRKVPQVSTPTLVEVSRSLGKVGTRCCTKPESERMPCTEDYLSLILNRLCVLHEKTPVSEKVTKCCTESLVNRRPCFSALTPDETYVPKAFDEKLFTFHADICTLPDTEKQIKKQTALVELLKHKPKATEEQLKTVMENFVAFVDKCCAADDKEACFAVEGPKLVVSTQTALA

[16] = target: Intestinal-type alkaline phosphatase (Homo sapiens, UniProt P09923); experiment: activation of human intestinal alkaline phosphatase – biochemical, dose response (AID 488873); format: functional
Intestinal-type alkaline phosphatase (Homo sapiens, UniProt P09923), sequence (P09923 whole entry): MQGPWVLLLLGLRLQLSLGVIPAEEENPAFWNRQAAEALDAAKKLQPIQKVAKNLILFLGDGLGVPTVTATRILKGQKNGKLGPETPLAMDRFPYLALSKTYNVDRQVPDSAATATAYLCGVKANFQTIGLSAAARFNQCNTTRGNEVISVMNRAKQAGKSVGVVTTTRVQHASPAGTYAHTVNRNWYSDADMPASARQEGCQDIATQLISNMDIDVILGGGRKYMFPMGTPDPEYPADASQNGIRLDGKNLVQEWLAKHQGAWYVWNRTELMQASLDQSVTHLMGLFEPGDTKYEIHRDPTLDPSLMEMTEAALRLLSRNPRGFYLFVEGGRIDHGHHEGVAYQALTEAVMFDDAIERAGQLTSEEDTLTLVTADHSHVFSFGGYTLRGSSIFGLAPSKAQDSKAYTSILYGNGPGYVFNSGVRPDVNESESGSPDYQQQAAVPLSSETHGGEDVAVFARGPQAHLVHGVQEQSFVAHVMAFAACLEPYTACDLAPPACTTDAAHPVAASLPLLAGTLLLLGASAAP

IC50 [1]: 4.27 µM (active)
IC50 [2]: 1.04 µM (active)
IC50 [3]: 1 µM (active)
IC50 [4]: 1.91 µM (active)
IC50 [5]: 5.13 µM (active)
IC50 [6]: 4.42 µM (active)
SMILES: CCOc1cc(C=NNC(=O)c2ccc(-c3csc(Nc4ccc(C)cc4)n3)cc2)ccc1OCC(=O)O

IC50 (Leucine aminopeptidase): 10.1 µM (active)
EC50 [7]: > 79.4 µM (inactive)
EC50 [8]: > 8.82 µM (not active)
EC50 [9]: > 79.4 µM (not active)
SMILES: CCc1nnc(NS(=O)(=O)c2ccc(N/C=C\C(=O)c3cccc4ccccc34)cc2)s1

SMILES: Oc1ccc(C[C@H]2NCCc3cc(O)c(O)cc32)cc1O
EC50 [10]: 6.36 µM (active)
IC50 (Large T antigen): 9.06 µM (active)
EC50 [11]: 5.43 µM (active)
IC50 [12]: 2.33 µM (active)
IC50 [13]: 10.1 µM (active)
IC50 [14]: 8.06 µM (active)
IC50 [15]: 0.47 µM (active)
IC50 (Albumin): > 94.1 µM (inactive)
EC50 [16]: > 100 µM (inactive)
